From patent US20250270222A1, “AP2 ASSOCIATED KINASE 1 INHIBITORS AND USES THEREOF” (Satellos Bioscience Inc., priority 2023, published 2025)

Columns and labels:
[1] = molecular target: GAK (amino acids Q25-N335) (Homo sapiens (Human), UniProt O14976); experiment: GAK pSENs assay; type: biochemical
AAK1 = AAK1 (Homo sapiens (Human), UniProt Q2M2I8); experiment: pAP2M1 cell-based assay (In-Cell Western); conditions: Hela cells co-transfected with AP2M1 and AAK1, 3 hr treatment, Phospho-AP2M1 (Thr156)
Chain of AAK1 (Q2M2I8 whole entry): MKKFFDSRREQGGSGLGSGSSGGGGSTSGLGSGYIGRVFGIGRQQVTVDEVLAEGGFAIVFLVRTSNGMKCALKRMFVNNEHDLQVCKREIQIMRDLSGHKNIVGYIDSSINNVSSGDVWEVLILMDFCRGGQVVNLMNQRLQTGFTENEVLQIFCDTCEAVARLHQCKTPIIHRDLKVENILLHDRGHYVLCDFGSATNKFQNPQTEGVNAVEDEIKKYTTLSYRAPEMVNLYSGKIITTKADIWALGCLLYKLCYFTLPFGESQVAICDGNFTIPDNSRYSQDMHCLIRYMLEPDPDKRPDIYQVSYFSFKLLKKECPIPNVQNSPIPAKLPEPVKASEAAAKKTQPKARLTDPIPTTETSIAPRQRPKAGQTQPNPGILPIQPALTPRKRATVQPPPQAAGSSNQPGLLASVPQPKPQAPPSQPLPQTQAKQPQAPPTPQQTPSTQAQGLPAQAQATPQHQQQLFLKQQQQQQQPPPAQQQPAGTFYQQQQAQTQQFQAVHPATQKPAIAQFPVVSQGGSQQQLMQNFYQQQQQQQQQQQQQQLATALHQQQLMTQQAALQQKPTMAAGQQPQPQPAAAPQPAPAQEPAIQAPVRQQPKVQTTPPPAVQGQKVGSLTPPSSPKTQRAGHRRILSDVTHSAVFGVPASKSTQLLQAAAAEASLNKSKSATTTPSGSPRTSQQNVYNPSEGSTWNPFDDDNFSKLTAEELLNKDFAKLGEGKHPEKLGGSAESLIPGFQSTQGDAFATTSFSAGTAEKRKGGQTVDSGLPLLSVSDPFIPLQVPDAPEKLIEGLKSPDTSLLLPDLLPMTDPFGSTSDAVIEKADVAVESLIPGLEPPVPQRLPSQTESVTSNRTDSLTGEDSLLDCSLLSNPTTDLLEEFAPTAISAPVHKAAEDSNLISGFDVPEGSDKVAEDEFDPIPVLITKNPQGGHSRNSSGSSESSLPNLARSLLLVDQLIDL
From the text: pAP2M1 Cell-Based Assay (In-Cell Western):
The plate was read on Licor Odyssey CLx imaging system (LICOR) to acquire fluorescence intensity at 700 channel and 800 channel.
Data analysis: Fluorescence intensity at 700 channel served as internal standard and 800 channel were normalized with 700 channel.

[2] = molecular target: AAK1 (amino acids T27-A365) (Homo sapiens (Human), UniProt Q2M2I8); experiment: AAK1 pSENs assay; type: biochemical; conditions: for AAK1:GAK pSENs Selectivity: ratio of AAK1 pSENs activity to GAK pSENs activity; for IC50: read-out: AAK1 pSENs:EIC50
Chain of AAK1 (amino acids T27-A365) (Q2M2I8 27-365): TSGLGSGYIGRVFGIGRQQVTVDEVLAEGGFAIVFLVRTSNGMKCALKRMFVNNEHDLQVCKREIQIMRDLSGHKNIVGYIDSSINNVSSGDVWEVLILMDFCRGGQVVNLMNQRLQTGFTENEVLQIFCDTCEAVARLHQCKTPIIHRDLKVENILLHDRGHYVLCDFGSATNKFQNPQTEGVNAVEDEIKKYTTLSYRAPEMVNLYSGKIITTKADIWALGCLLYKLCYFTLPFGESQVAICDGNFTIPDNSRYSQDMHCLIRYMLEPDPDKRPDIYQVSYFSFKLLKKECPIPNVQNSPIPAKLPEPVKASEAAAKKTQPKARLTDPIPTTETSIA
Summary of the method: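 Untagged, biotinylated E. coli-expressed AAK1 at 20 nM preincubated with compound 15 min at 25° C in HEPES pH 7.5 buffer with 10 mM MgCl2 and 1 mM DTT. Reaction started with AQT0759 and ATP, added as 30 uM and 70 uM solutions in equal volume.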

[3] = molecular target: BIKE (amino acids S38-E345) (K320A, K321A) (Homo sapiens (Human), UniProt Q9NSY1, K320A/K321A); experiment: BIKE pSENs assay; type: biochemical
Chain of BIKE (amino acids S38-E345) (K320A, K321A) (Q9NSY1 38-345 K320A/K321A): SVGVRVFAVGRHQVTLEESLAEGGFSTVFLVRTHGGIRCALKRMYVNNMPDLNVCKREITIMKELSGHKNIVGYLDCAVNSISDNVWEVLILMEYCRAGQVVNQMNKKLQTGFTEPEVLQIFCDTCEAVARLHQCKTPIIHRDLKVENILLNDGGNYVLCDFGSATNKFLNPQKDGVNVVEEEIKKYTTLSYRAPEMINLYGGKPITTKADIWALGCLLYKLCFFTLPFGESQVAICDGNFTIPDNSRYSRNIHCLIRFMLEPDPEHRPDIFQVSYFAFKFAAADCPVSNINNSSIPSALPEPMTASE
Method: The recombinant proteins were independently expressed in Esherichia coli BL21(DE3) cells cultured in Luria-Bertani (LB) medium until OD600 reached 0.6-0.8, then cooled to 15° C., and supplemented with 0.5 mM isopropyl 1-thio-D-galactopyranoside (IPTG) induce protein expression 16 h. Cells were harvested and resuspended in lysis buffer (50 mM HEPES pH 7.5, 500 mM NaCl, 5 mM imidazole, 5% glycerol, 0.5 mM Tris (2-carboxyethyl) phosphine (TCEP), cOmplete Protease Inhibitor Tablet (Roche)) and lysed by microfluidics high pressure homogenizer (UH-06, Union-Biotech). Proteins were purified using Ni-Affinity chromatography (His FF column, Bestchrom) and eluted stepwise in binding buffer with 20-300 mM imidazole. Removal of the hexahistidine tag was performed at 4° C. overnight using recombinant TEV protease and reacted with BirA to obtain the corresponding biotinylated-AAK1. BIKE or GAK proteins. Further separated in the reverse Strep column (Strep-Tactin® XT, IBA). The Biotin elution sample was collected containing untagged biotinylated protein was then purified by Ion-exchange chromatography (Mono Q 10/100 GL, Cytiva) and Size-exclusion chromatography (HiLoad 16/600 Superdex 200 pg, Cytiva). The pure protein was stored in a storage buffer 50 mM HEPES (pH 7.5), 300 mM NaCl, 5% glycerol at −80° C. Protein were characterized by SDS-PAGE. LC-MS and aSEC.
BIKE protein was dissolved at 20 nM in 1× enzyme solution (50 mM HEPES pH7.5, 10 mM MgCl2, 1 mM DTT, 1% glycerol, 0.5 mM EGTA, 0.01% Briji35, 0.02% BSA) and 12.5 ul was incubated with 250 nl DMSO or 250 nl compound in DMSO at 25° C. for 15 min. The reaction was started by addition of 12.5 ul of 30 uM AQT0759 (Assayquant, CSKS-AQT0759B) and 40 uM ATP which were diluted in 1× substrate dilution buffer (50 mM HEPES pH7.5, 10 mM MgCl2. 1 mM DTT, 1% glycerol, 0.5 mM EGTA, 0.01% Briji35).

Chain of GAK (amino acids Q25-N335) (O14976 25-335): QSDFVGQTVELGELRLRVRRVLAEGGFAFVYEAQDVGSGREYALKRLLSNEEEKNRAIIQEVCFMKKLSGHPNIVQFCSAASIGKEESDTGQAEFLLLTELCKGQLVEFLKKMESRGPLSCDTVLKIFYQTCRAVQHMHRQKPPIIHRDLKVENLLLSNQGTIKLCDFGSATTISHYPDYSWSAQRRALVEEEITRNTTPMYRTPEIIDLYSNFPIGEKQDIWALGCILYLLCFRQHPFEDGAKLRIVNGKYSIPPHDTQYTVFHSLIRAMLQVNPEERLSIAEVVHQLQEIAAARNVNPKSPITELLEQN

Which results are given for C[C@]1(OC(=O)N2CCN(c3ccn4ncc(-c5cccnc5OC5CC5)c4n3)CC2)CCNC1 (single isomer, unassigned) [Compound I-13]?
IC50 [1]: 51 to 150 nM; IC50 (AAK1): 1 to 50 nM; AAK1:GAK pSENs Selectivity [2]: B (B: 0.016-0.075); IC50 [2]: 1 to 50 nM; IC50 [3]: 1 to 50 nM

What does the source list for NC(=O)[C@@H]1CN(c2ccn3ncc(-c4cccnc4OC4CC4)c3n2)CCN1C(=O)O[C@@H]1CNC(=O)C1 [Compound I-41-6, (S)-5-Oxopyrrolidin-3-yl-(S)-2-carbamoyl-4-(3-(2-cyclopropoxypyridin-3-yl)pyrazolo[1,5-a]pyrimidin-5-yl)piperazine-1-carboxylate]?
IC50 [1]: > 1500 nM; AAK1:GAK pSENs Selectivity [2]: B (B: 0.016-0.075); IC50 [3]: > 1500 nM

Which IC50 [1] does the source give for O=C1C[C@H](OC(=O)N2CCN(c3ccn4ncc(-c5cccnc5OC5CNC5)c4n3)CC2)CN1 [Compound I-43, [(3S)-5-Oxopyrrolidin-3-yl]4-[3-[2-(azetidin-3-yloxy)-3-pyridyl]pyrazolo[1,5-a]pyrimidin-5-yl]piperazine-1-carboxylate] here?
Its IC50 is > 1500 nM.

What about the IC50 (AAK1) of the same molecule?
Its IC50 is > 1500 nM.

And the “AAK1:GAK pSENs Selectivity” value [2]?
The value was “D (D: 0.16-1.00)”.

And the IC50 [2]?
Its IC50 is > 1500 nM.

And the IC50 [3]?
The IC50 was > 1500 nM.

Which results are given for CN1CC(Oc2ncccc2-c2cnn3ccc(N4CCN(C(=O)O[C@@H]5CNC(=O)C5)CC4)nc23)C1 [Compound I-44, (S)-5-Oxopyrrolidin-3-yl 4-(3-(2-((1-methylazetidin-3-yl)oxy)pyridin-3-yl)pyrazolo[1,5-a]pyrimidin-5-yl)piperazine-1-carboxylate]?
IC50 [1]: > 1500 nM; AAK1:GAK pSENs Selectivity [2]: D (D: 0.16-1.00); IC50 [3]: > 1500 nM

Which results are given for CC(C)Nc1ncccc1-c1cnn2ccc(N3CCN(C(=O)O[C@@H]4CNC(=O)C4)CC3)nc12 [Compound I-47, [(3S)-5-oxopyrrolidin-3-yl]4-[3-[2-(isopropylamino)-3-pyridyl]pyrazolo[1,5-a]pyrimidin-5-yl]piperazine-1-carboxylate]?
IC50 [1]: > 1500 nM; AAK1:GAK pSENs Selectivity [2]: E (E: >1.00); IC50 [3]: > 1500 nM

CC(C)(C)OC(=O)N1CC(Nc2ncccc2-c2cnn3ccc(N4CCN(C(=O)O[C@@H]5CNC(=O)C5)CC4)nc23)C1 [Compound I-48] was tested. Which IC50 [1] did it give?
Its IC50 is > 1500 nM.

And the “AAK1:GAK pSENs Selectivity” value [2]?
Its value is “D (D: 0.16-1.00)”.

What about the IC50 [3] of the same molecule?
The IC50 was > 1500 nM.

What does the source list for CN(C)CCN1CC[C@@](C)(OC(=O)N2CCN(c3ccn4ncc(-c5cccnc5OC5CC5)c4n3)CC2)C1 [Compound I-53, (R)-1-(2-(dimethylamino)ethyl)-3-(methylpyrrolidin-3-yl)-4-(3-(2-cyclopropoxypyridin-3-yl)pyrazolo[1,5-a]pyrimidin-5-yl)piperazine-1-carboxylate]?
IC50 [1]: > 1500 nM; AAK1:GAK pSENs Selectivity [2]: A (A: ≤0.015); IC50 [3]: 501 to 1500 nM

With O=C1C[C@H](OC(=O)N[C@@H]2CCN(c3ccn4ncc(-c5cccnc5OC5CC5)c4n3)C2)CN1 [Compound I-54, [(3S)-5-oxopyrrolidin-3-yl]N-[(3R)-1-[3-[2-(cyclopropoxy)-3-pyridyl]pyrazolo[1,5-a]pyrimidin-5-yl]pyrrolidin-3-yl]carbamate] as the molecule, how does the IC50 [1] read?
The IC50 was > 1500 nM.

And the “AAK1:GAK pSENs Selectivity” value [2]?
The value was “C (C: 0.076-0.15)”.

And the IC50 [3]?
The IC50 was > 1500 nM.

Which results are given for O=C1C[C@H](OC(=O)N[C@H]2CCN(c3ccn4ncc(-c5cccnc5OC5CC5)c4n3)C2)CN1 [Compound I-55, (S)-5-oxopyrrolidin-3-yl ((S)-1-(3-(2-cyclopropoxypyridin-3-yl)pyrazolo[1,5-a]pyrimidin-5-yl)pyrrolidin-3-yl)carbamate]?
IC50 [1]: > 1500 nM; AAK1:GAK pSENs Selectivity [2]: D (D: 0.16-1.00); IC50 [3]: > 1500 nM

With C[C@@]1(OC(=O)N[C@@H]2CCN(c3ccn4ncc(-c5cccnc5OC5CC5)c4n3)C2)CCNC1 [Compound I-56, (R)-3-methylpyrrolidin-3-yl ((R)-1-(3-(2-cyclopropoxypyridin-3-yl)pyrazolo[1,5-a]pyrimidin-5-yl)pyrrolidin-3-yl)carbamate] as the molecule, how does the IC50 [1] read?
The IC50 was > 1500 nM.

What about the “AAK1:GAK pSENs Selectivity” value [2] of the same molecule?
Its value is “C (C: 0.076-0.15)”.

And the IC50 [3]?
Its IC50 is > 1500 nM.

With O=C(O[C@H]1CO[C@H]2OCC[C@H]21)N1CCN(c2ccn3ncc(-c4ccncn4)c3n2)CC1 [Compound I-67] as the molecule, how does the IC50 [1] read?
Its IC50 is > 1500 nM.

And the “AAK1:GAK pSENs Selectivity” value [2]?
The value was “C (C: 0.076-0.15)”.

And the IC50 [3]?
The IC50 was > 1500 nM.

Which IC50 [1] does the source give for O=C(O[C@H]1CO[C@H]2OCC[C@H]21)N1CCN(c2ccn3ncc(-c4ccccc4OC4CC4)c3n2)CC1 [Compound I-68, [(3aS,4R,6aR)-2,3,3a, 4,5,6a-hexahydrofuro[2,3-b]furan-4-yl]4-[3-[2-(cyclopropoxy)phenyl]pyrazolo[1,5-a]pyrimidin-5-yl]piperazine-1-carboxylate] here?
The IC50 was > 1500 nM.

And the “AAK1:GAK pSENs Selectivity” value [2]?
The value was “A (A: ≤0.015)”.

And the IC50 [3]?
The IC50 was > 1500 nM.

Which IC50 [1] does the source give for COC(=O)N1CC(Oc2ncccc2-c2cnn3ccc(N4CCN(C(=O)O[C@@H]5CC(=O)N(CCOCc6ccccc6)C5)CC4)nc23)C1 [Compound I-84-6, [(3R)-1-(2-benzyloxyethyl)-5-oxo-pyrrolidin-3-yl]-4-[3-[2-(1-methoxycarbonyl-azetidin-3-yl)oxy-3-pyridyl]pyrazolo[1,5-a]pyrimidin-5-yl]piperazine-1-carboxylate] here?
The IC50 was > 1500 nM.

What about the “AAK1:GAK pSENs Selectivity” value [2] of the same molecule?
Its value is “B (B: 0.016-0.075)”.

And the IC50 [3]?
Its IC50 is > 1500 nM.

COC(=O)N1CC(Oc2ncccc2-c2cnn3ccc(N4CCN(C(=O)O[C@@H]5CC(=O)N(C6COC6)C5)CC4)nc23)C1 [Compound I-85, [(3R)-1-(oxetan-3-yl)-5-oxo-pyrrolidin-3-yl]-4-[3-[2-(1-methoxycarbonylazetidin-3-yl)oxy-3-pyridyl]pyrazolo[1,5-a]pyrimidin-5-yl]piperazine-1-carboxylate] was tested. Which IC50 [1] did it give?
The IC50 was > 1500 nM.

And the “AAK1:GAK pSENs Selectivity” value [2]?
The value was “C (C: 0.076-0.15)”.

What about the IC50 [3] of the same molecule?
Its IC50 is > 1500 nM.

How did the IC50 [1] turn out when Cc1nn2ccc(N3CCN(C(=O)O[C@H]4CC(=O)N(C)C4)CC3)nc2c1-c1cccnc1OC1CC1 [Compound I-108, [(3S)-1-methyl-5-oxo-pyrrolidin-3-yl]-4-[3-[2-(cyclopropoxy)-3-pyridyl]-2-methyl-pyrazolo[1,5-a]pyrimidin-5-yl]piperazine-1-carboxylate] was run?
The IC50 was > 1500 nM.

What about the “AAK1:GAK pSENs Selectivity” value [2] of the same molecule?
Its value is “E (E: >1.00)”.

And the IC50 [3]?
Its IC50 is > 1500 nM.

What does the source list for CN1C[C@@H](OC(=O)N2CCN(c3nc4c(-c5cccnc5OC5CC5)cnn4cc3O)CC2)CC1=O [Compound I-110, [(3S)-1-methyl-5-oxo-pyrrolidin-3-yl]-4-[3-[2-(cyclopropoxy)-3-pyridyl]-6-hydroxy-pyrazolo[1,5-a]pyrimidin-5-yl]piperazine-1-carboxylate]?
IC50 [1]: > 1500 nM; AAK1:GAK pSENs Selectivity [2]: E (E: >1.00); IC50 [3]: > 1500 nM

What does the source list for COc1cn2ncc(-c3cccnc3OC3CC3)c2nc1N1CCN(C(=O)O[C@H]2CC(=O)N(C)C2)CC1 [Compound I-110-9, [(3S)-1-methyl-5-oxo-pyrrolidin-3-yl]-4-[3-[2-(cyclopropoxy)-3-pyridyl]-6-methoxy-pyrazolo[1,5-a]pyrimidin-5-yl]piperazine-1-carboxylate]?
IC50 [1]: > 1500 nM; AAK1:GAK pSENs Selectivity [2]: E (E: >1.00); IC50 [3]: > 1500 nM

Which IC50 [1] does the source give for Cc1cn2ncc(-c3cccnc3OC3CC3)c2nc1N1CCN(C(=O)O[C@H]2CC(=O)N(C)C2)CC1 [Compound I-111, [(3S)-1-methyl-5-oxo-pyrrolidin-3-yl]-4-[3-[2-(cyclopropoxy)-3-pyridyl]-6-methyl-pyrazolo[1,5-a]pyrimidin-5-yl]piperazine-1-carboxylate] here?
The IC50 was > 1500 nM.

What about the “AAK1:GAK pSENs Selectivity” value [2] of the same molecule?
The value was “C (C: 0.076-0.15)”.

And the IC50 [3]?
The IC50 was > 1500 nM.

Which IC50 [1] does the source give for CN1C[C@@H](OC(=O)N2CCN(c3nc4c(-c5cccnc5OC5CCCCC5)cnn4cc3F)CC2)CC1=O [Compound I-123, [(3S)-1-methyl-5-oxo-pyrrolidin-3-yl]-4-[3-[2-(cyclohexoxy)-3-pyridyl]-6-fluoro-pyrazolo[1,5-a]pyrimidin-5-yl]piperazine-1-carboxylate] here?
Its IC50 is > 1500 nM.

And the “AAK1:GAK pSENs Selectivity” value [2]?
Its value is “C (C: 0.076-0.15)”.

What about the IC50 [3] of the same molecule?
Its IC50 is > 1500 nM.
